How the values were obtained:
redroot pigweed [1] = assay: Test Example 5: herbicidal effect by foliage application, plastic box (Table 20, symbol N); assay type: in vivo, redroot pigweed (Amaranthus retroflexus); details: amount of applied herbicide 320 g/ha; foliage application after 14-day growth; evaluated three weeks after application
Procedure, shortened: (§1)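 Post-emergence foliar test in sterilized diluvial soil. Compound applied as water-diluted emulsion at a predetermined rate to 14-day-old plants; evaluation at three weeks.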

lambsquarters [2] = assay: Test Example 4: herbicidal effect by soil treatment (Table 19, symbol O); assay type: in vivo, lambsquarters (Chenopodium album); details: amount of applied herbicide 320 g/ha
Procedure, shortened: (§2)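 Emulsion of test compound, water-diluted to predetermined amount, sprayed on soil after sowing (seed depth ~1.5 cm, sterilized diluvial soil). Greenhouse, 25–30° C. Effect graded at three weeks post-spray.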

false cleavers = assay: Test Example 5: herbicidal effect by foliage application, plastic box (Table 20, symbol Q); assay type: in vivo, false cleavers (Galium spurium); details: amount of applied herbicide 320 g/ha; foliage application after 14-day growth; evaluated three weeks after application
Procedure, shortened: as §1

green foxtail [3] = assay: Test Example 4: herbicidal effect by soil treatment (Table 19, symbol G); assay type: in vivo, green foxtail (Setaria viridis); details: amount of applied herbicide 320 g/ha
Procedure, shortened: as §2

redroot pigweed [4] = assay: Test Example 4: herbicidal effect by soil treatment (Table 19, symbol N); assay type: in vivo, redroot pigweed (Amaranthus retroflexus); details: amount of applied herbicide 320 g/ha
Procedure, shortened: as §2

chickweed [5] = assay: Test Example 5: herbicidal effect by foliage application, plastic box (Table 20, symbol P); assay type: in vivo, common chickweed (Stellaria media); details: amount of applied herbicide 320 g/ha; foliage application after 14-day growth; evaluated three weeks after application
Procedure, shortened: as §1

southern crabgrass [6] = assay: Test Example 4: herbicidal effect by soil treatment (Table 19, symbol F); assay type: in vivo, southern crabgrass (Digitaria ciliaris); details: amount of applied herbicide 320 g/ha
Procedure, shortened: as §2

chickweed [7] = assay: Test Example 4: herbicidal effect by soil treatment (Table 19, symbol P); assay type: in vivo, common chickweed (Stellaria media); details: amount of applied herbicide 320 g/ha
Procedure, shortened: as §2

Japanese bulrush = assay: Test Example 1: herbicidal activity, application before weed generation under submerged conditions (Table 16, symbol B); assay type: in vivo, Japanese bulrush (Schoenoplectus juncoides); details: amount of applied herbicide 320 g/ha
Procedure, shortened: (§3)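 Emulsion formulation, water-diluted to set dose, was put onto the flooded surface (4 cm depth, alluvial soil) the same day weeds were sown and 2.5-leaf rice transplanted. After 3 weeks at 25-30 °C under glass, each species was rated 0 (≤5% kill) to 5 (≥90% kill).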

persian speedwell [8] = assay: Test Example 5: herbicidal effect by foliage application, plastic box (Table 20, symbol R); assay type: in vivo, Persian speedwell (Veronica persica); details: amount of applied herbicide 320 g/ha; foliage application after 14-day growth; evaluated three weeks after application
Procedure, shortened: as §1

green foxtail [9] = assay: Test Example 5: herbicidal effect by foliage application, plastic box (Table 20, symbol G); assay type: in vivo, green foxtail (Setaria viridis); details: amount of applied herbicide 320 g/ha; foliage application after 14-day growth; evaluated three weeks after application
Procedure, shortened: as §1

windgrass [10] = assay: Test Example 4: herbicidal effect by soil treatment (Table 19, symbol L); assay type: in vivo, windgrass (Apera spica-venti); details: amount of applied herbicide 320 g/ha
Procedure, shortened: as §2

barnyard grass [11] = assay: Test Example 4: herbicidal effect by soil treatment (Table 19, symbol H); assay type: in vivo, barnyard grass (Echinochloa crus-galli); details: amount of applied herbicide 320 g/ha
Procedure, shortened: as §2

wild oat [12] = assay: Test Example 5: herbicidal effect by foliage application, plastic box (Table 20, symbol I); assay type: in vivo, wild oat (Avena fatua); details: amount of applied herbicide 320 g/ha; foliage application after 14-day growth; evaluated three weeks after application
Procedure, shortened: as §1

wild oat [13] = assay: Test Example 4: herbicidal effect by soil treatment (Table 19, symbol I); assay type: in vivo, wild oat (Avena fatua); details: amount of applied herbicide 320 g/ha
Procedure, shortened: as §2

rice flat sedge = assay: Test Example 3: herbicidal effect by foliage application, Wagner pot (Table 18, symbol E); assay type: in vivo, rice flat sedge (Cyperus iria); details: 320 g/ha
Procedure, shortened: (§4)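 Plants were sown in alluvial soil held under 0.1–0.5 cm standing water and grown 14 days in a greenhouse at 25–30 °C. An emulsifiable formulation, water-diluted to the set dose, was then sprayed onto the foliage, and effects were scored three weeks later using previously defined criteria.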

Italian ryegrass [14] = assay: Test Example 5: herbicidal effect by foliage application, plastic box (Table 20, symbol K); assay type: in vivo, Italian ryegrass (Lolium multiflorum); details: amount of applied herbicide 320 g/ha; foliage application after 14-day growth; evaluated three weeks after application
Procedure, shortened: as §1

lambsquarters [15] = assay: Test Example 5: herbicidal effect by foliage application, plastic box (Table 20, symbol O); assay type: in vivo, lambsquarters (Chenopodium album); details: amount of applied herbicide 320 g/ha; foliage application after 14-day growth; evaluated three weeks after application
Procedure, shortened: as §1

persian speedwell [16] = assay: Test Example 4: herbicidal effect by soil treatment (Table 19, symbol R); assay type: in vivo, Persian speedwell (Veronica persica); details: amount of applied herbicide 320 g/ha
Procedure, shortened: as §2

barnyard grass [17] = assay: Test Example 5: herbicidal effect by foliage application, plastic box (Table 20, symbol H); assay type: in vivo, barnyard grass (Echinochloa crus-galli); details: amount of applied herbicide 320 g/ha; foliage application after 14-day growth; evaluated three weeks after application
Procedure, shortened: as §1

southern crabgrass [18] = assay: Test Example 5: herbicidal effect by foliage application, plastic box (Table 20, symbol F); assay type: in vivo, southern crabgrass (Digitaria ciliaris); details: amount of applied herbicide 320 g/ha; foliage application after 14-day growth; evaluated three weeks after application
Procedure, shortened: as §1

barnyard grass [19] = assay: Test Example 3: herbicidal effect by foliage application, Wagner pot (Table 18, symbol H); assay type: in vivo, barnyard grass (Echinochloa crus-galli); details: 320 g/ha
Procedure, shortened: as §4

oval-leafed pondweed = assay: Test Example 1: herbicidal activity, application before weed generation under submerged conditions (Table 16, symbol C); assay type: in vivo, oval-leafed pondweed (Monochoria vaginalis); details: amount of applied herbicide 320 g/ha
Procedure, shortened: as §3

late watergrass = assay: Test Example 1: herbicidal activity, application before weed generation under submerged conditions (Table 16, symbol A); assay type: in vivo, late watergrass (Echinochloa oryzicola); details: amount of applied herbicide 320 g/ha
Procedure, shortened: as §3

blackgrass [20] = assay: Test Example 4: herbicidal effect by soil treatment (Table 19, symbol J); assay type: in vivo, blackgrass (Alopecurus myosuroides); details: amount of applied herbicide 320 g/ha
Procedure, shortened: as §2

Chinese sprangletop = assay: Test Example 3: herbicidal effect by foliage application, Wagner pot (Table 18, symbol D); assay type: in vivo, chinese sprangletop (Leptochloa chinensis); details: 320 g/ha
Procedure, shortened: as §4

velvetleaf [21] = assay: Test Example 4: herbicidal effect by soil treatment (Table 19, symbol M); assay type: in vivo, velvetleaf (Abutilon theophrasti); details: amount of applied herbicide 320 g/ha
Procedure, shortened: as §2

windgrass [22] = assay: Test Example 5: herbicidal effect by foliage application, plastic box (Table 20, symbol L); assay type: in vivo, windgrass (Apera spica-venti); details: amount of applied herbicide 320 g/ha; foliage application after 14-day growth; evaluated three weeks after application
Procedure, shortened: as §1

velvetleaf [23] = assay: Test Example 5: herbicidal effect by foliage application, plastic box (Table 20, symbol M); assay type: in vivo, velvetleaf (Abutilon theophrasti); details: amount of applied herbicide 320 g/ha; foliage application after 14-day growth; evaluated three weeks after application
Procedure, shortened: as §1

blackgrass [24] = assay: Test Example 5: herbicidal effect by foliage application, plastic box (Table 20, symbol J); assay type: in vivo, blackgrass (Alopecurus myosuroides); details: amount of applied herbicide 320 g/ha; foliage application after 14-day growth; evaluated three weeks after application
Procedure, shortened: as §1

Italian ryegrass [25] = assay: Test Example 4: herbicidal effect by soil treatment (Table 19, symbol K); assay type: in vivo, Italian ryegrass (Lolium multiflorum); details: amount of applied herbicide 320 g/ha
Procedure, shortened: as §2

COc1ccccc1-c1sc2cc(F)c(F)cc2c1-c1c(O)c(C)nn(C)c1=O [5-011]
Herbicidal effect by foliage application, N: redroot pigweed (redroot pigweed [1]): 5 (Herbicidal rate of 90% or more (almost completely withered)) | O: lambsquarters, herbicidal effect grade (lambsquarters [2]): 5 (Herbicidal rate of 90% or more (almost completely withered)) | Herbicidal effect by foliage application, Q: false cleavers (false cleavers): 5 (Herbicidal rate of 90% or more (almost completely withered)) | G: green foxtail, herbicidal effect grade (green foxtail [3]): 4 (Herbicidal rate of 70% or more and less than 90%) | N: redroot pigweed, herbicidal effect grade (redroot pigweed [4]): 5 (Herbicidal rate of 90% or more (almost completely withered)) | Herbicidal effect by foliage application, P: chickweed (chickweed [5]): 5 (Herbicidal rate of 90% or more (almost completely withered)) | F: southern crabgrass, herbicidal effect grade (southern crabgrass [6]): 3 (Herbicidal rate of 40% or more and less than 70%) | P: chickweed, herbicidal effect grade (chickweed [7]): 3 (Herbicidal rate of 40% or more and less than 70%) | Herbicidal effect, B: Japanese bulrush (Japanese bulrush): 2 (Herbicidal rate of 20% or more and less than 40%) | Herbicidal effect by foliage application, R: persian speedwell (persian speedwell [8]): 5 (Herbicidal rate of 90% or more (almost completely withered)) | Herbicidal effect by foliage application, G: green foxtail (green foxtail [9]): 5 (Herbicidal rate of 90% or more (almost completely withered)) | L: windgrass, herbicidal effect grade (windgrass [10]): 4 (Herbicidal rate of 70% or more and less than 90%) | H: barnyard grass, herbicidal effect grade (barnyard grass [11]): 4 (Herbicidal rate of 70% or more and less than 90%) | Herbicidal effect by foliage application, I: wild oat (wild oat [12]): 3 (Herbicidal rate of 40% or more and less than 70%) | I: wild oat, herbicidal effect grade (wild oat [13]): 0 (Herbicidal rate of 5% or less (almost no effect)) | herbicidal effect on rice flat sedge (E) (rice flat sedge): 5 (Herbicidal rate of 90% or more (almost completely withered)) | Herbicidal effect by foliage application, K: Italian ryegrass (Italian ryegrass [14]): 3 (Herbicidal rate of 40% or more and less than 70%) | Herbicidal effect by foliage application, O: lambsquarters (lambsquarters [15]): 4 (Herbicidal rate of 70% or more and less than 90%) | R: persian speedwell, herbicidal effect grade (persian speedwell [16]): 5 (Herbicidal rate of 90% or more (almost completely withered)) | Herbicidal effect by foliage application, H: barnyard grass (barnyard grass [17]): 4 (Herbicidal rate of 70% or more and less than 90%) | Herbicidal effect by foliage application, F: southern crabgrass (southern crabgrass [18]): 2 (Herbicidal rate of 20% or more and less than 40%) | herbicidal effect on barnyard grass (H) (barnyard grass [19]): 5 (Herbicidal rate of 90% or more (almost completely withered)) | Herbicidal effect, C: oval-leafed pondweed (oval-leafed pondweed): 0 (Herbicidal rate of 5% or less (almost no effect)) | Herbicidal effect, A: late watergrass (late watergrass): 2 (Herbicidal rate of 20% or more and less than 40%) | J: blackgrass, herbicidal effect grade (blackgrass [20]): 3 (Herbicidal rate of 40% or more and less than 70%) | herbicidal effect on Chinese sprangletop (D) (Chinese sprangletop): 3 (Herbicidal rate of 40% or more and less than 70%) | M: velvetleaf, herbicidal effect grade (velvetleaf [21]): 5 (Herbicidal rate of 90% or more (almost completely withered)) | Herbicidal effect by foliage application, L: windgrass (windgrass [22]): 4 (Herbicidal rate of 70% or more and less than 90%) | Herbicidal effect by foliage application, M: velvetleaf (velvetleaf [23]): 5 (Herbicidal rate of 90% or more (almost completely withered)) | Herbicidal effect by foliage application, J: blackgrass (blackgrass [24]): 3 (Herbicidal rate of 40% or more and less than 70%) | K: Italian ryegrass, herbicidal effect grade (Italian ryegrass [25]): 3 (Herbicidal rate of 40% or more and less than 70%)

— patent US20230085307A1, “PYRIDAZINONE COMPOUND AND HERBICIDE” (NISSAN CHEMICAL CORPORATION, priority 2019, published 2023)
